melting point [°C] | Structure (SMILES)
90 to 91 | CCc1nc2c(NC(C)=O)nc3ccccc3c2n1CCCCNS(C)(=O)=O [Example 1, N-(2-Ethyl-1-{4-[(methylsulfonyl)amino]butyl}-1H-imidazo[4,5-c]quinolin-4-yl)acetamide]
185 to 187 | CCOC(=O)Nc1nc2ccccc2c2c1nc(CC)n2CCCCNS(C)(=O)=O [Example 3, Ethyl 2-Ethyl-1-{4-[(methylsulfonyl)amino]butyl}-1H-imidazo[4,5-c]quinolin-4-ylcarbamate]
122 to 124 | CCc1nc2c(NC(=O)C(C)C)nc3ccccc3c2n1CCCCNS(C)(=O)=O [Example 4, N-(2-Ethyl-1-{4-[(methylsulfonyl)amino]butyl}-1H-imidazo[4,5-c]quinolin-4-yl)-2-methylpropanamide]

Further lines, the compound ahead of its results:

Structure (SMILES) | melting point [°C]
CCc1nc2c(NC(=O)c3ccccc3)nc3ccccc3c2n1CCCCNS(C)(=O)=O [Example 2, N-(2-Ethyl-1-{4-[(methylsulfonyl)amino]butyl}-1H-imidazo[4,5-c]quinolin-4-yl)benzamide] | 249 to 250
CCc1nc2c(NC(=O)C(C)(C)C)nc3ccccc3c2n1CCCCNS(C)(=O)=O [Example 5, N-(2-Ethyl-1-{4-[(methylsulfonyl)amino]butyl}-1H-imidazo[4,5-c]quinolin-4-yl)-2,2-dimethylpropanamide] | 220 to 221
CCCOC(=O)Nc1nc2ccccc2c2c1nc(CC)n2CCCCNS(C)(=O)=O [Example 6, Propyl 2-Ethyl-1-{4-[(methylsulfonyl)amino]butyl}-1H-imidazo[4,5-c]quinolin-4-ylcarbamate] | 155 to 157
CCCCOC(=O)Nc1nc2ccccc2c2c1nc(CC)n2CCCCNS(C)(=O)=O [Example 7, Butyl 2-Ethyl-1-{4-[(methylsulfonyl)amino]butyl}-1H-imidazo[4,5-c]quinolin-4-ylcarbamate] | 164 to 166

Reference: US8188111B2, “Amide and carbamate derivatives of alkyl substituted N-[4-(4-amino-1H-imidazo[4,5-c]quinolin-1-yl)butyI]methanesulfonamides and methods” (3M Innovative Properties Company, priority 2005, dated 2012)
